Measured values as given in patent US6248901A, “Heterocyclic vinyl ethers” (Hoffman-La Roche Inc., priority 1997, dated 2001).

These molecules were tested against rat mGluR2 receptor (Rattus norvegicus, UniProt P31421) (assay: GTP γ^35 S test for affinity to group II mGluR (antagonism of 1S,3R-ACPD effect, membranes with rat mGluR2)).
Format: biochemical
Method: The binding of the compounds of formula I in accordance with the invention to group II metabotropic glutamate receptors was determined in vitro. The preparations were tested in accordance with the test given hereinafter:
The GTP γ^35 S test was used to determine the affinity of a compound to the group II mGluR. Membranes which adhere to the rat mGluR2 receptor were used. These were stimulated with 10 μM 1S,3R-ACPD.
The Ki values of the compounds to be tested are given. The Ki value is defined by the following formula [formula]

rat mGluR2 receptor, sequence (P31421 19-872): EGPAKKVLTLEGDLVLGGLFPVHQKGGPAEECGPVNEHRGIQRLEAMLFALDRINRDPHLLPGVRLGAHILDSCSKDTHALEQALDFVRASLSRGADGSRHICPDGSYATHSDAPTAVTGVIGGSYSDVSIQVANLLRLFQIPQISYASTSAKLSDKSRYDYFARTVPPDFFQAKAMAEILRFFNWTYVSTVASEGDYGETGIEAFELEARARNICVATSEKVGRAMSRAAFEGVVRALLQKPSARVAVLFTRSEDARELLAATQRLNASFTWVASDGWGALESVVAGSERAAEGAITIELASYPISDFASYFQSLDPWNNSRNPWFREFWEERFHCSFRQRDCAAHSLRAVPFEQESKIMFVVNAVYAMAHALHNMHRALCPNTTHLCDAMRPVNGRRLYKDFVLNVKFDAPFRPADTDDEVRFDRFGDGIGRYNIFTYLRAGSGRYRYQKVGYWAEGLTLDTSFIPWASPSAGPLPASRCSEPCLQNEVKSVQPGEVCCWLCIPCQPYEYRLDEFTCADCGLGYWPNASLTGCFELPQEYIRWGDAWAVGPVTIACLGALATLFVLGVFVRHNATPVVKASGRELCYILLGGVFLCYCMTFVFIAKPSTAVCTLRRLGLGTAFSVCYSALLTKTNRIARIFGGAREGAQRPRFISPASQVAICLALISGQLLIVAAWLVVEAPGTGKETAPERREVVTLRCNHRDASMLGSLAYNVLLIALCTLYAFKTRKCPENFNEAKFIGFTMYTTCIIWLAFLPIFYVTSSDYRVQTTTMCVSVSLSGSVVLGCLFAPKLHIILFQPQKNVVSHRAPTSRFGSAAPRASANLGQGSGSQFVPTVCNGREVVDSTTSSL

SMILES | Ki [nM]
CC(C)OC(=Cn1cncn1)c1ccc(Cl)cc1Cl [A, 1-[2-(2,4-Dichloro-phenyl)-2-isopropoxy-vinyl]-1H-[1,2,4]triazole] | 1170
CC(C)COC(=Cn1cncn1)c1ccc(Cl)cc1Cl [B, 1-[2-(2,4-Dichloro-phenyl)-2-isobutoxy-vinyl]-1H-[1,2,4]triazole] | 640
CCCCOC(=Cn1cncn1)c1ccc(Cl)cc1Cl [C, 1-[-2-(2,4-Dichloro-phenyl)-2-butoxy-2-vinyl]-1H-[1,2,4]triazole] | 1400
CC(C)OC(=Cn1cncn1)c1c(Cl)cc(Cl)cc1Cl [D, 1-[2-(2,4,6-Trichloro-phenyl)-2-isopropoxy-vinyl]-1H-[1,2,4]triazole] | 2700
COC(=Cn1cncn1)c1ccc(Cl)cc1Cl [E, 1-[2-(2,4-Dichloro-phenyl)-2-methoxy-vinyl]-1H-[1,2,4]triazole] | 11000
CCCCOC(=Cn1cncn1)c1ccc(Br)cc1 [F, 1-[2-(4-Bromo-phenyl)-2-butoxy-vinyl]-1H-[1,2,4]triazole] | 660
